From PubChem BioAssay (NCI)
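Exposure lasted 48 hours, with cells grown in 96-well plates and compounds tested at five concentrations. Here, GI50 denotes the concentration required for 50% inhibition of growth. At the TGI there is no net growth.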

Columns and labels:
Assay in all cases: NCI tumour cell line growth inhibition, 48 h
SF-539 CNS = test system: SF-539 CNS
KM12 colon = test system: KM12 colon
HCC-2998 colon = test system: HCC-2998 colon
SNB-19 CNS = test system: SNB-19 CNS
M14 melanoma = test system: M14 melanoma
EKVX NSCLC = test system: EKVX NSCLC
OVCAR-5 ovarian = test system: OVCAR-5 ovarian
HCT-15 colon = test system: HCT-15 colon
RPMI-8226 leukemia = test system: RPMI-8226 leukemia
SF-295 CNS = test system: SF-295 CNS
UO-31 renal = test system: UO-31 renal
A549 NSCLC = test system: A549 NSCLC
SK-OV-3 ovarian = test system: SK-OV-3 ovarian
HL-60(TB) leukemia = test system: HL-60(TB) leukemia
BT-549 breast = test system: BT-549 breast
NCI-H522 lung = test system: NCI-H522 lung
DU-145 prostate = test system: DU-145 prostate
SF-268 CNS = test system: SF-268 CNS
SK-MEL-5 melanoma = test system: SK-MEL-5 melanoma
MDA-MB-435 = test system: MDA-MB-435
K-562 leukemia = test system: K-562 leukemia
MCF7 breast = test system: MCF7 breast
OVCAR-3 ovarian = test system: OVCAR-3 ovarian
PC-3 prostate = test system: PC-3 prostate
MDA-MB-468 breast = test system: MDA-MB-468 breast
NCI-H23 lung = test system: NCI-H23 lung
HOP-62 NSCLC = test system: HOP-62 NSCLC
UACC-257 melanoma = test system: UACC-257 melanoma
HT29 colon = test system: HT29 colon
ACHN renal = test system: ACHN renal
U251 CNS = test system: U251 CNS
HCT-116 colon = test system: HCT-116 colon
T-47D breast = test system: T-47D breast
COLO 205 colon = test system: COLO 205 colon
SR leukemia = test system: SR leukemia
NCI/ADR-RES ovarian = test system: NCI/ADR-RES ovarian
NCI-H460 lung = test system: NCI-H460 lung
IGROV1 ovarian = test system: IGROV1 ovarian
UACC-62 melanoma = test system: UACC-62 melanoma
MDA-MB-231 breast = test system: MDA-MB-231 breast
NCI-H226 lung = test system: NCI-H226 lung
TK-10 renal = test system: TK-10 renal
LOX IMVI melanoma = test system: LOX IMVI melanoma
CAKI-1 renal = test system: CAKI-1 renal
SN12C renal = test system: SN12C renal
MOLT-4 leukemia = test system: MOLT-4 leukemia
OVCAR-8 ovarian = test system: OVCAR-8 ovarian
A498 renal = test system: A498 renal
MALME-3M melanoma = test system: MALME-3M melanoma
SK-MEL-28 melanoma = test system: SK-MEL-28 melanoma
RXF 393 renal = test system: RXF 393 renal
HS 578T breast = test system: HS 578T breast
786-0 renal = test system: 786-0 renal
SNB-75 CNS = test system: SNB-75 CNS
HOP-92 NSCLC = test system: HOP-92 NSCLC
OVCAR-4 ovarian = test system: OVCAR-4 ovarian
SW-620 colon = test system: SW-620 colon
CCRF-CEM leukemia = test system: CCRF-CEM leukemia

SMILES: C[C@@H]1CN(c2ccc3ncc(C#Cc4cncc(C(=O)Nc5ccc(CN6CCN(C)CC6)c(C(F)(F)F)c5)c4)n3n2)C[C@@H](C)O1
- GI50 (SF-539 CNS): 142 nM
- TGI (SF-539 CNS): 382 nM
- GI50 (KM12 colon): 11.4 nM
- TGI (KM12 colon): 534 nM
- GI50 (HCC-2998 colon): 426 nM
- TGI (HCC-2998 colon): 1010 nM
- GI50 (SNB-19 CNS): 467 nM
- TGI (SNB-19 CNS): 1260 nM
- GI50 (M14 melanoma): 280 nM
- TGI (M14 melanoma): 771 nM
- GI50 (EKVX NSCLC): 227 nM
- TGI (EKVX NSCLC): 654 nM
- GI50 (OVCAR-5 ovarian): 363 nM
- TGI (OVCAR-5 ovarian): 922 nM
- GI50 (HCT-15 colon): 286 nM
- TGI (HCT-15 colon): 632 nM
- GI50 (RPMI-8226 leukemia): 507 nM
- TGI (RPMI-8226 leukemia): 2030 nM
- GI50 (SF-295 CNS): 332 nM
- TGI (SF-295 CNS): 1010 nM
- GI50 (UO-31 renal): 128 nM
- TGI (UO-31 renal): 462 nM
- GI50 (A549 NSCLC): 340 nM
- TGI (A549 NSCLC): 938 nM
- GI50 (SK-OV-3 ovarian): 510 nM
- TGI (SK-OV-3 ovarian): 1570 nM
- GI50 (HL-60(TB) leukemia): 421 nM
- TGI (HL-60(TB) leukemia): 1170 nM
- GI50 (BT-549 breast): 349 nM
- TGI (BT-549 breast): 1200 nM
- GI50 (NCI-H522 lung): 261 nM
- TGI (NCI-H522 lung): 525 nM
- GI50 (DU-145 prostate): 332 nM
- TGI (DU-145 prostate): 923 nM
- GI50 (SF-268 CNS): 299 nM
- TGI (SF-268 CNS): 1130 nM
- GI50 (SK-MEL-5 melanoma): 673 nM
- TGI (SK-MEL-5 melanoma): 1370 nM
- GI50 (MDA-MB-435): 281 nM
- TGI (MDA-MB-435): 833 nM
- GI50 (K-562 leukemia): 33.6 nM
- TGI (K-562 leukemia): 2730 nM
- GI50 (MCF7 breast): 229 nM
- TGI (MCF7 breast): 679 nM
- GI50 (OVCAR-3 ovarian): 328 nM
- TGI (OVCAR-3 ovarian): 1130 nM
- GI50 (PC-3 prostate): 507 nM
- TGI (PC-3 prostate): 1810 nM
- GI50 (MDA-MB-468 breast): 216 nM
- TGI (MDA-MB-468 breast): 452 nM
- GI50 (NCI-H23 lung): 268 nM
- TGI (NCI-H23 lung): 617 nM
- GI50 (HOP-62 NSCLC): 318 nM
- TGI (HOP-62 NSCLC): 968 nM
- GI50 (UACC-257 melanoma): 737 nM
- TGI (UACC-257 melanoma): 3510 nM
- GI50 (HT29 colon): 311 nM
- TGI (HT29 colon): 979 nM
- GI50 (ACHN renal): 242 nM
- TGI (ACHN renal): 680 nM
- GI50 (U251 CNS): 362 nM
- TGI (U251 CNS): 1010 nM
- GI50 (HCT-116 colon): 270 nM
- TGI (HCT-116 colon): 790 nM
- GI50 (T-47D breast): 754 nM
- TGI (T-47D breast): 2220 nM
- GI50 (COLO 205 colon): 316 nM
- TGI (COLO 205 colon): 719 nM
- GI50 (SR leukemia): 499 nM
- TGI (SR leukemia): 10300 nM
- GI50 (NCI/ADR-RES ovarian): 899 nM
- TGI (NCI/ADR-RES ovarian): 1850 nM
- GI50 (NCI-H460 lung): 379 nM
- TGI (NCI-H460 lung): 1040 nM
- GI50 (IGROV1 ovarian): 276 nM
- TGI (IGROV1 ovarian): 772 nM
- GI50 (UACC-62 melanoma): 310 nM
- TGI (UACC-62 melanoma): 989 nM
- GI50 (MDA-MB-231 breast): 59.5 nM
- TGI (MDA-MB-231 breast): 207 nM
- GI50 (NCI-H226 lung): 87.9 nM
- TGI (NCI-H226 lung): 574 nM
- GI50 (TK-10 renal): 299 nM
- TGI (TK-10 renal): 727 nM
- GI50 (LOX IMVI melanoma): 222 nM
- TGI (LOX IMVI melanoma): 468 nM
- GI50 (CAKI-1 renal): 1370 nM
- TGI (CAKI-1 renal): 3890 nM
- GI50 (SN12C renal): 143 nM
- TGI (SN12C renal): 647 nM
- GI50 (MOLT-4 leukemia): 297 nM
- TGI (MOLT-4 leukemia): 4090 nM
- GI50 (OVCAR-8 ovarian): 366 nM
- TGI (OVCAR-8 ovarian): 1050 nM
- GI50 (A498 renal): 678 nM
- TGI (A498 renal): 1370 nM
- GI50 (MALME-3M melanoma): 276 nM
- TGI (MALME-3M melanoma): 826 nM
- GI50 (SK-MEL-28 melanoma): 520 nM
- TGI (SK-MEL-28 melanoma): 1230 nM
- GI50 (RXF 393 renal): 187 nM
- TGI (RXF 393 renal): 432 nM
- GI50 (HS 578T breast): 166 nM
- TGI (HS 578T breast): 794 nM
- GI50 (786-0 renal): 407 nM
- TGI (786-0 renal): 986 nM
- GI50 (SNB-75 CNS): 61.6 nM
- TGI (SNB-75 CNS): 188 nM
- GI50 (HOP-92 NSCLC): 124 nM
- TGI (HOP-92 NSCLC): 496 nM
- GI50 (OVCAR-4 ovarian): 263 nM
- TGI (OVCAR-4 ovarian): 1240 nM
- GI50 (SW-620 colon): 277 nM
- TGI (SW-620 colon): 768 nM
- GI50 (CCRF-CEM leukemia): 475 nM
- TGI (CCRF-CEM leukemia): 1530 nM
